Results as given in patent publication US5591828A, “Bispecific and oligospecific mono-and oligovalent receptors, the preparation and use thereof” (Behringwerke Aktiengesellschaft, priority 1989, dated 1997).

Tests used:
Assay in all cases: Quantitative inhibition ELISA for MAbs by DTPA or EDTA complexes
Type in all cases: binding, mouse (Balb/c)
[1] = molecular target: MAb 2050/531 (anti-DTPA/EDTA monoclonal antibody); details: solid phase Y-benzyl-DTPA-HSA, preincubation with competitor at RT for 30'
Description: (§1) Isothiocyanatobenzyl-DTPA (formula 2) was covalently coupled as hapten onto human serum albumin (HSA as carrier) with a degree of derivatization of 19 benzyl-DTPA molecules per HSA molecule by the method described in (N. W. Brechbiel et al., Inorganic Chemistry25, (1986) 2772-2781). 20 μg of this hapten-carrier complex, into which cold Y had been complexed, were injected s.c. on day 0 with Freund's adjuvant, on day 7 and 14 with incomplete Freund's adjuvant and on day 21 with PBS into Balb/c mice. On day 24, the spleens of the mice with the highest anti-DTPA antibody titers were fused with the SP2/0-Ag14 myeloma cell line (Shulman et al., Nature 276, (1978) 269). The resulting hybridomas were tested in a DTPA-specific ELISA for the production of high-affinity MAbs against DTPA and EDTA. The ELISA comprised a solid phase which was loaded with a solution containing HSA-benzyl-DTPA-Y. The supernatant containing the MAb to be tested was preincubated with free chelate or its metal ion complexes, and its binding to the specific solid phase was measured. An enzyme amplification system which is coupled to an anti-mouse immunoglobulin antibody was used for this purpose. The details of these methods are described in Annex 1a and 1b.
(§2) Quantitative inhibition ELISA for MAbs by DTPA or EDTA complexes
(§3) 1) 50 μl of Y-benzyl-DTPA-HSA 19 conjugate with a concentration of 1 μg of conjugate per ml of PBS, pH 7.2, are pipetted into each well and incubated at room temperature (RT) overnight.
(§4) 5) Preincubation of the diluted hybridoma supernatant with the competitor is carried out during the blocking (see Annex 1b).
(§5) 6) 50 μl of the appropriately prediluted and preincubated hybridoma supernatants to be tested are applied to each well and incubated at RT for 30 min.
(§6) 15) The extinctions are measured at 492 nm in a […]® […]. 50 μl of NADP with 50 μl of solution and 1200 μl of 0.1N H2 SO4 are employed as blank.
(§7) Preincubation of the hybridoma supernatant with the competitor
(§8) On the basis of the ELISA concentration determination, the hybridoma supernatants are diluted to 1.25 μg/ml in PBS without Ca^++ and Mg^++.
(§9) The hybridoma supernatant is incubated with 100,000-fold, 50,000-fold, 10,000-fold, 5,000-fold, 1,000-fold and 100-fold excess of competitor at RT for 30'. 50 μl of this are pipetted into the ELISA (see Annex 1a, no. 6).
(§10) The complexing constant of DTPA or EDTA to the metal ions depicted in Table I is extremely high so that complete saturation has to be expected on equimolar mixing of DTPA or EDTA with these metal ions. For this reason, the corresponding metal ions were incubated in a 3-fold molar excess with the DTPA or EDTA. As an example, 170 μl of a 10 mM cadmium sulfate solution in double-distilled water (see Annex 1d) were incubated with 30 μl of a 0.028 molar DTPA stock solution in double-distilled water at RT for 5'. Mixing 10 μl of this competitor solution with the hybridoma supernatant leads to a 100,000-fold excess of competitor over the MAb contained in the hybridoma supernatant. Lower competitor to MAb ratios were achieved by diluting the competitor solution in the particular salt ion solution appropriately for the desired molar excess (see Annex 1b).
(§11) Quantitative assay of inhibition of MAb by DTPA and EDTA
(§12) Molar excess of competitor which leads to 50% inhibition of the binding to the solid-phase antigen.

[2] = molecular target: MAb 2050/532 (anti-DTPA/EDTA monoclonal antibody); details: solid phase Y-benzyl-DTPA-HSA, preincubation with competitor at RT for 30'
Description: as §1, §2, §3, §4, §5, §6, §7, §8, §9, §10, §11, §12

[3] = molecular target: MAb 2050/534 (anti-DTPA/EDTA monoclonal antibody); details: solid phase Y-benzyl-DTPA-HSA, preincubation with competitor at RT for 30'
Description: as §1, §2, §3, §4, §5, §6, §7, §8, §9, §10, §11, §12

[4] = molecular target: MAb 2050/535 (anti-DTPA/EDTA monoclonal antibody); details: solid phase Y-benzyl-DTPA-HSA, preincubation with competitor at RT for 30'
Description: as §1, §2, §3, §4, §5, §6, §7, §8, §9, §10, §11, §12

[5] = molecular target: MAb BW 2050/174 (anti-DTPA/EDTA monoclonal antibody); details: MAb 2050/174; solid phase Y-benzyl-DTPA-HSA; preincubation with competitor at RT for 30'
Description: as §1, §2, §3, §4, §5, §6, §7, §8, §9, §10, §11, §12

Row | Compound | Molar excess of competitor which leads to 50% inhibition of the binding to the solid-phase antigen [1] | Molar excess of competitor which leads to 50% inhibition of the binding to the solid-phase antigen [2] | Molar excess of competitor which leads to 50% inhibition of the binding to the solid-phase antigen [3] | Molar excess of competitor which leads to 50% inhibition of the binding to the solid-phase antigen [4] | Molar excess of competitor which leads to 50% inhibition of the binding to the solid-phase antigen [5]
1 | O=C(O)/C=C(\CC(=O)O)C(=O)O [Trans-aconitic acid, transaconitic acid] | > 10^5 molar excess | > 10^5 molar excess | > 10^5 molar excess | > 10^5 molar excess | > 10^5 molar excess
2 | O=C([O-])CN(CCN(CCN(CC(=O)O)CC(=O)O)CC(=O)O)CC(=O)[O-].[Zn+2] [DTPA-Zn] | 5 × 10^3 molar excess | 5 × 10^3 molar excess | 5 × 10^3 molar excess | 10^3 molar excess | 5 × 10^3 molar excess
3 | O=C([O-])CN(CCN(CC(=O)[O-])CC(=O)[O-])CCN(CC(=O)[O-])CC(=O)[O-].[Y+3] [DTPA-Y] | 5 × 10^4 molar excess | 5 × 10^4 molar excess | 5 × 10^4 molar excess | 10^4 molar excess | 10^4 molar excess
4 | O=C(O)CN(CCN(CC(=O)O)CC(=O)O)CCN(CC(=O)O)CC(=O)O [DTPA, diethylenetriaminepentaacetate] | 10^3 molar excess | 10^3 molar excess | 10^3 molar excess | 10^3 molar excess | 10^3 molar excess
5 | O=C([O-])CN(CCN(CC(=O)O)CC(=O)O)CC(=O)[O-].[Zn+2] [EDTA-Zn] | 10^3 molar excess | 10^3 molar excess | 10^3 molar excess | 10^2 molar excess | 10^3 molar excess
6 | O=C([O-])CN(CCN(CC(=O)[O-])CC(=O)[O-])CC(=O)[O-].[Cu+2] [EDTA-Cu] | 10^2 molar excess | 5 × 10^3 molar excess | 10^3 molar excess | 10^2 molar excess | 10^3 molar excess
7 | NCCN [1,2-Diaminoethane, 1,2-diaminoethane] | > 10^5 molar excess | > 10^5 molar excess | > 10^5 molar excess | > 10^5 molar excess | > 10^5 molar excess
